Test results as given in patent US11185553B2, “Pharmaceutical composition for preventing or treating ischemic-reperfusion injury comprising bile acids” (priority 2016, dated 2021).

Assays:
beta-catenin = test: Nuclear beta-catenin luciferase assay in TCF/LEF reporter_HEK293 cell line; assay type: cell-based; conditions: TCF/LEF reporter_HEK293, 1 μm or 10 μm, 24 hours, FIG. 1
[1] = system: mitochondrial permeability transition pore (mPTP); test: TMRM staining of 293T cells after CCCP-induced mPTP opening; assay type: cell-based; conditions: 1 μM and 10 μM, CCCP 50 μM, FIG. 3
[2] = system: reperfusion injury mouse model; test: Mouse myocardial necrosis in reperfusion injury model, Annexin-Vivo750 fluorescent dye; assay type: in vivo; conditions: Annexin-Vivo750, FIG. 7B
Description: In order to confirm the inhibitory effect of deoxycholic acid among the bile acids on myocardial necrosis caused by reperfusion injury, the test was performed to confirm mouse myocardial necrosis using Annexin-Vivo750 fluorescent dye.
After 24 hours, Annexin-Vivo750 fluorescent dye was injected into the mouse model prepared in Example 3 to examine the effect of deoxycholic acid (1, 2, 5 mg/kg (mpk)) by the concentration. Annexin dyes are known to bind where apoptosis occurs and to show fluorescence.

[3] = system: reperfusion injury mouse model; test: Reperfusion injury mouse model, TTC staining of infarcted heart tissue

SMILES	beta-catenin levels in the nucleus (luciferase activity) (beta-catenin)	inhibition of mitochondrial injury [1]	decrease of myocardial death compared to the control group with reperfusion surgery ([2]; 1 mpk) [%]	decrease of myocardial death compared to the control group with reperfusion surgery ([2]; 2 mpk) [%]	reduction of the infarcted area ([3]; 2 mg/kg, FIG. 6B)	concentration at which cells died ([3]; reperfusion injury mouse model) [mg/kg]	concentration at which the effect was shown ([3]; reperfusion injury mouse model) [mg/kg]
C[C@H](CCC(=O)NCCS(=O)(=O)O)[C@H]1CC[C@H]2[C@@H]3[C@H](O)C[C@@H]4C[C@H](O)CC[C@]4(C)[C@H]3C[C@H](O)[C@]12C [TauroCA, taurocholic acid]	significantly increased						
C[C@H](CCC(=O)O)[C@H]1CC[C@H]2[C@@H]3[C@H](O)C[C@@H]4C[C@H](O)CC[C@]4(C)[C@H]3C[C@H](O)[C@]12C [cholic acid]	significantly increased	about 90%					
C[C@H](CCC(=O)O)[C@H]1CC[C@H]2[C@@H]3CC[C@@H]4C[C@H](O)CC[C@]4(C)[C@H]3C[C@H](O)[C@]12C [deoxycholic acid]		about 90%	≥ 40	≥ 40	about 50%	≥ 10	≤ 2
